Species on record: Rattus norvegicus
Test: DrugMatrix - Regimen: Daily Repeat
Type: toxicity, organism-based, Sprague-Dawley
Design: regimen Daily Repeat, gender Male, age 6-8 weeks
Details: in vivo, po, route oral GAVAGE, […]; for ABSOLUTE BASOPHIL / ABSOLUTE EOSINOPHIL / ABSOLUTE LYMPHOCYTE / ABSOLUTE MONOCYTE / ABSOLUTE SEGMENTED NEUTROPHIL / BASOPHIL / EOSINOPHIL / ERYTHROCYTE COUNT / HEMATOCRIT / HEMOGLOBIN / LEUKOCYTE COUNT / LYMPHOCYTE / MEAN CORPUSCULAR HEMOGLOBIN / MEAN CORPUSCULAR HEMOGLOBIN CONCENTRATION / MEAN CORPUSCULAR VOLUME / MONOCYTE / NEUTROPHIL / NUCLEATED RED BLOOD CELLS / PLATELET COUNT: tissue Blood; for ALANINE AMINOTRANSFERASE / ALBUMIN / ALKALINE PHOSPHATASE / ASPARTATE AMINOTRANSFERASE / BLOOD UREA NITROGEN / CARBON DIOXIDE / CHLORIDE / CHOLESTEROL / CREATINE PHOSPHOKINASE / CREATININE / GLUCOSE / LACTATE DEHYDROGENASE / LIPASE / PHOSPHORUS / POTASSIUM / SODIUM / TOTAL BILIRUBIN / TOTAL PROTEIN / URIC ACID: tissue Plasma
[1] = 30 mg/kg, 120 h, dose level Low, time 5 day
[2] = 60 mg/kg, 72 h, dose level High, time 3 day
[3] = 60 mg/kg, 120 h, dose level High, time 5 day

SMILES: Cc1oncc1C(=O)Nc1ccc(C(F)(F)F)cc1 [LEFLUNOMIDE]
- ABSOLUTE BASOPHIL [1]: 0 CELLS/uL
- ABSOLUTE EOSINOPHIL [1]: 25.33 CELLS/uL
- ABSOLUTE LYMPHOCYTE [1]: 6685.33 CELLS/uL
- ABSOLUTE MONOCYTE [1]: 149.33 CELLS/uL
- ABSOLUTE SEGMENTED NEUTROPHIL [1]: 606.67 CELLS/uL
- BASOPHIL [1]: 0%
- EOSINOPHIL [1]: 0.33%
- ERYTHROCYTE COUNT [1]: 4.69 x10E6/uL
- HEMATOCRIT [1]: 30.27%
- HEMOGLOBIN [1]: 11.73 G/DL
- LEUKOCYTE COUNT [1]: 7.47 x10E3/uL
- LYMPHOCYTE [1]: 89.33%
- MEAN CORPUSCULAR HEMOGLOBIN [1]: 25.03 pg
- MEAN CORPUSCULAR HEMOGLOBIN CONCENTRATION [1]: 38.77 G/DL
- MEAN CORPUSCULAR VOLUME [1]: 64.57 fL
- MONOCYTE [1]: 2%
- NEUTROPHIL [1]: 8.33%
- NUCLEATED RED BLOOD CELLS [1]: 0 /100WBC
- PLATELET COUNT [1]: 507.67 x10E3/uL
- ALANINE AMINOTRANSFERASE [1]: 47.33 u/L
- ALBUMIN [1]: 3.93 G/DL
- ALKALINE PHOSPHATASE [1]: 195.67 u/L
- ASPARTATE AMINOTRANSFERASE [1]: 69.33 u/L
- BLOOD UREA NITROGEN [1]: 12.67 mg/dL
- CARBON DIOXIDE [1]: 34 mmol/L
- CHLORIDE [1]: 103 MEQ/L
- CHOLESTEROL [1]: 104.33 mg/dL
- CREATINE PHOSPHOKINASE [1]: 179 u/L
- CREATININE [1]: 0.11 mg/dL
- GLUCOSE [1]: 152.67 mg/dL
- LACTATE DEHYDROGENASE [1]: 60 u/L
- LIPASE [1]: 11.67 u/L
- PHOSPHORUS [1]: 12.6 mg/dL
- POTASSIUM [1]: 5.71 MEQ/L
- SODIUM [1]: 146.27 MEQ/L
- TOTAL BILIRUBIN [1]: 0.1 mg/dL
- TOTAL PROTEIN [1]: 5.9 G/DL
- URIC ACID [1]: 0.27 mg/dL
- ABSOLUTE BASOPHIL [2]: 0 CELLS/uL
- ABSOLUTE EOSINOPHIL [2]: 0 CELLS/uL
- ABSOLUTE LYMPHOCYTE [2]: 5003.33 CELLS/uL
- ABSOLUTE MONOCYTE [2]: 42.67 CELLS/uL
- ABSOLUTE SEGMENTED NEUTROPHIL [2]: 720.67 CELLS/uL
- BASOPHIL [2]: 0%
- EOSINOPHIL [2]: 0%
- ERYTHROCYTE COUNT [2]: 5.59 x10E6/uL
- HEMATOCRIT [2]: 34.57%
- HEMOGLOBIN [2]: 13.67 G/DL
- LEUKOCYTE COUNT [2]: 5.77 x10E3/uL
- LYMPHOCYTE [2]: 89%
- MEAN CORPUSCULAR HEMOGLOBIN [2]: 24.5 pg
- MEAN CORPUSCULAR HEMOGLOBIN CONCENTRATION [2]: 39.53 G/DL
- MEAN CORPUSCULAR VOLUME [2]: 61.87 fL
- MONOCYTE [2]: 0.67%
- NEUTROPHIL [2]: 10.33%
- NUCLEATED RED BLOOD CELLS [2]: 0 /100WBC
- PLATELET COUNT [2]: 824 x10E3/uL
- ALANINE AMINOTRANSFERASE [2]: 39.67 u/L
- ALBUMIN [2]: 3.1 G/DL
- ALKALINE PHOSPHATASE [2]: 225.67 u/L
- ASPARTATE AMINOTRANSFERASE [2]: 100.33 u/L
- BLOOD UREA NITROGEN [2]: 14 mg/dL
- CARBON DIOXIDE [2]: 30 mmol/L
- CHLORIDE [2]: 98.67 MEQ/L
- CHOLESTEROL [2]: 115.33 mg/dL
- CREATINE PHOSPHOKINASE [2]: 296.67 u/L
- CREATININE [2]: 0.11 mg/dL
- GLUCOSE [2]: 170 mg/dL
- LACTATE DEHYDROGENASE [2]: 93.67 u/L
- LIPASE [2]: 11.33 u/L
- PHOSPHORUS [2]: 10.73 mg/dL
- POTASSIUM [2]: 4.3 MEQ/L
- SODIUM [2]: 142.97 MEQ/L
- TOTAL BILIRUBIN [2]: 0.17 mg/dL
- TOTAL PROTEIN [2]: 4.97 G/DL
- URIC ACID [2]: 0.43 mg/dL
- ABSOLUTE BASOPHIL [3]: 0 CELLS/uL
- ABSOLUTE EOSINOPHIL [3]: 23 CELLS/uL
- ABSOLUTE LYMPHOCYTE [3]: 3653 CELLS/uL
- ABSOLUTE MONOCYTE [3]: 48 CELLS/uL
- ABSOLUTE SEGMENTED NEUTROPHIL [3]: 376 CELLS/uL
- BASOPHIL [3]: 0%
- EOSINOPHIL [3]: 0.67%
- ERYTHROCYTE COUNT [3]: 6.19 x10E6/uL
- HEMATOCRIT [3]: 39%
- HEMOGLOBIN [3]: 15.23 G/DL
- LEUKOCYTE COUNT [3]: 4.1 x10E3/uL
- LYMPHOCYTE [3]: 89.33%
- MEAN CORPUSCULAR HEMOGLOBIN [3]: 24.77 pg
- MEAN CORPUSCULAR HEMOGLOBIN CONCENTRATION [3]: 39.07 G/DL
- MEAN CORPUSCULAR VOLUME [3]: 63.4 fL
- MONOCYTE [3]: 1.33%
- NEUTROPHIL [3]: 8.67%
- NUCLEATED RED BLOOD CELLS [3]: 0 /100WBC
- PLATELET COUNT [3]: 441.33 x10E3/uL
- ALANINE AMINOTRANSFERASE [3]: 25.67 u/L
- ALBUMIN [3]: 3.73 G/DL
- ALKALINE PHOSPHATASE [3]: 203 u/L
- ASPARTATE AMINOTRANSFERASE [3]: 75.67 u/L
- BLOOD UREA NITROGEN [3]: 64.67 mg/dL
- CARBON DIOXIDE [3]: 24.33 mmol/L
- CHLORIDE [3]: 98.5 MEQ/L
- CHOLESTEROL [3]: 138.67 mg/dL
- CREATINE PHOSPHOKINASE [3]: 227.67 u/L
- CREATININE [3]: 0.33 mg/dL
- GLUCOSE [3]: 145.67 mg/dL
- LACTATE DEHYDROGENASE [3]: 137 u/L
- LIPASE [3]: 22.67 u/L
- PHOSPHORUS [3]: 11.8 mg/dL
- POTASSIUM [3]: 5.41 MEQ/L
- SODIUM [3]: 137.7 MEQ/L
- TOTAL BILIRUBIN [3]: 0.27 mg/dL
- TOTAL PROTEIN [3]: 6.53 G/DL
- URIC ACID [3]: 0.93 mg/dL
